Test results from patent publication US7091345B2, “Amino-substituted dihydropyrimido[4,5-D]pyrimidinone derivatives” (Hoffmann-La Roche Inc., priority 2002, dated 2006).
Counter-ions that a name gives are not always drawn.

Columns and labels:
[1] = molecular target: T1, Src (p60^c-src) (Homo sapiens, UniProt P12931); assay: SRC-Inhibitor-Assay, time-resolved fluorescence kinase assay (Src); type: biochemical; conditions: ATP 5 μM; enzyme 2.5 U/ml; pre-incubation 15 min at 15° C.; read-out: IC 50 (src)
T1 construct: purchased Upstate (UBI)
Method: (§1) The activity of the compounds according to this invention as inhibitors for the src-family tyrosine kinases was shown by using the following assay.
(§2) SRC-Inhibitor-Assay Parameters:
(§3) Assay buffer: 4 mM MgCl2 • 2 mM TCEP • 50 mM HEPES • 0,1% Tween 20 • pH 7.3
(§4) Material: Eu-labelled phosphotyrosine antibody:—for Lck Cisbio Mab PT66-K, for Src EG&G Wallac PT66 Eu-W1024 (all commercially available). Peptides: Ro: NH2-A-E-E-E-I-Y-G-E-F-E-A-K-K-K-K-CONH2, and Ja133-Ro: Ja133-G-Aminocaprylic acid-A-E-E-E-I-Y-G-E-F-E-A-K-K-K-K-CONH2, wherein Ja133 is LightCycler-Red 640-N-hydroxy succinimide ester; whereby both peptides were synthesized by an optimized solid phase peptide synthesis protocol (Merrifield, Fed. Proc. Fed. Amer. Soc. Exp. Biol. 21 (1962) 412) on a Zinsser SMP350 peptide synthesizer. Shortly, the peptide was assembled on 160 mg (22.8 μmol scale) of a Rink-Linker modified polystyrene solid phase by repeatedly conjugating an twenty fold excess of amino acids each protected by temporary piperidine labile Fmoc- and permanent acid labile tert-Bu-, BOC— and Otert-Bu-groups depending on the side chain function. The substrate sequence AEEEIYGEFEAKKKK was N-terminal additionally mounted with the spacer amino acids Aminocaprylic acid and Glycin. After cleavage of the N-terminal temporary protecting group the still attached and protected peptide was labeled with a 1.5 fold amount of LightCycler-Red 640-N-hydroxy succinimide ester (purchased by Roche Diagnostics GmbH) and triethylamine. After 3 hrs. the resin was washed with Dimethylformamide and Isopropanol until the eluates of the blue resin got colourless. […] The substrate was finally isolated by a preparative reverse phase HPLC purification. The purification yielded 12.2 mg RP-HPLC single peak pure blue material (lyophilisate). The identity was proven by MALDI mass spectroscopy [2720.0]. Enzymes: Upstate Lck (p56^lck, active), Upstate Src (p60^c-src, partially purified) were purchased from UBI. Time-resolved Fluorescence Assay: Reader: Perkin Elmer, Wallac Viktor 1420-040 multilabel counter; Liquid handling system: Beckman Coulter, Biomek 2000. ATP, Tween 20, HEPES were purchased from Roche Molecular Biochemicals, MgCl2 and MnCl2 were purchased from Merck Eurolab, TCEP was purchased from Pierce, 384 Well low volume fluorescence plates was purchased from Falcon. Assay Description:
(§5) At first the enzyme is pre-incubated for 15 min. at 15° C. in aqueous solution with corresponding amounts of inhibitors according to this invention. Then the phosphorylation reaction is started by adding a reaction mixture, containing ATP, Peptide and PT66, and subsequent shaking. The proceeding of this reaction is immediately monitored using time resolved fluorescence spectroscopy in a suitable well plate reader.
(§6) The IC50-values can be obtained from the reaction rates by using a non-linear curve fit (Excelfit).

[2] = molecular target: T2, Lck (p56^lck) (Homo sapiens, UniProt P06239); assay: SRC-Inhibitor-Assay, time-resolved fluorescence kinase assay (Lck); type: biochemical; conditions: ATP 5 μM; enzyme 2.5 U/ml; pre-incubation 15 min at 15° C.; read-out: IC 50 (lck)
T2 construct: purchased Upstate (UBI)
Method: as §1, §2, §3, §4, §5, §6

[3] = Pharmacokinetic study in mice, plasma levels after single p.o. dose; type: in vivo; conditions: male NMRI mice, p.o. single dose 30 mg/kg as micro-suspension, dose-normalised
Method: A preferred pharmaceutical preparation was obtained by using the following procedure: • 1. Weigh 4.0 g glass beads in custom made tube GL 25, 4 cm (the beads fill half of the tube). • 2. Add 50 mg compound, disperse with spatulum and vortex. • 3. Add 2 ml gelatin solution (weight beads: gelatin solution=2:1) and vortex. • 4. Cap and wrap in aluminium foil for light protection. • 5. Prepare a counter balance for the mill. • 6. Mill for 4 hours, 20/s in a Retsch mill (for some substances up to 24 hours at 30/s). • 7. Extract suspension from beads with two layers of filter (100 μm) on a filter holder, coupled to a recipient vial by centrifugation at 400 g for 2 min. • 8. Move extract to measuring cylinder. • 9. Repeat washing with small volumes (here 1 ml steps) until final volume is reached or extract is clear. • 10. Fill up to final volume with gelatin and homogenise.
The above described preparation yields micro-suspensions of the compounds of formula I with particle sizes between 1 and 10 μm. The suspensions are suitable for oral applications and were used in the in vivo pharmacokinetic testings described below.
To male NMRI mice of 29–35 g body weight the compounds according to this invention were given p.o. as micro-suspensions (7.5% modified gelatine and 0.22% NaCl) in doses of 30 mg/kg (Drug concentration: 3 mg/mL. Administered volume: 10 mL/kg) and as single dose administration. Study Protocol:
Animals were fasted overnight up to 4 hrs. after administration of the compound. For each single p.o. dose the mice were allocated to 3 groups with 4 animals each. Blood samples are taken from group 1 at 0.5, 3 and 24 hours, from group 2 at 1 and 6 hours, and from group 3 at 2 and 8 hours.
Blood samples of about 200 μl were obtained by retro-orbital puncture. Plasma samples were obtained from heparinized/EDTA blood by centrifugation at room temperature, and stored frozen at −20° C. until analysis.
Plasma was deproteinated and subsequently analysed for plasma levels of the compound by a compound specific HPLC-MS method. WinNonlin™ was used to calculate the pharmacokinetic parameters.

T2 sequence (P06239 whole entry, species assumed): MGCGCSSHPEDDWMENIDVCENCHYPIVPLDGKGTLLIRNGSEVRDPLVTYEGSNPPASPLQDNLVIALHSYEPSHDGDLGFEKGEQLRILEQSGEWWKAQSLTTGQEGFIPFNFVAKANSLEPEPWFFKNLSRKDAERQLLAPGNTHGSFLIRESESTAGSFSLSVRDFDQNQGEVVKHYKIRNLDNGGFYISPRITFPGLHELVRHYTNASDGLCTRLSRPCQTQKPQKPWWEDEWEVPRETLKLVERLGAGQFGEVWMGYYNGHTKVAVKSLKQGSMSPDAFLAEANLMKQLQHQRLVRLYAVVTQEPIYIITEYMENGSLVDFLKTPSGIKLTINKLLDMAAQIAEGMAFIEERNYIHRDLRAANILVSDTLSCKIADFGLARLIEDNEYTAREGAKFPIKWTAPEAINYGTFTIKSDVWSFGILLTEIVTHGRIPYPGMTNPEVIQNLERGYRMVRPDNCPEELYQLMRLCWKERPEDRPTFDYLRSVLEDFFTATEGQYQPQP
T1 sequence (P12931 whole entry): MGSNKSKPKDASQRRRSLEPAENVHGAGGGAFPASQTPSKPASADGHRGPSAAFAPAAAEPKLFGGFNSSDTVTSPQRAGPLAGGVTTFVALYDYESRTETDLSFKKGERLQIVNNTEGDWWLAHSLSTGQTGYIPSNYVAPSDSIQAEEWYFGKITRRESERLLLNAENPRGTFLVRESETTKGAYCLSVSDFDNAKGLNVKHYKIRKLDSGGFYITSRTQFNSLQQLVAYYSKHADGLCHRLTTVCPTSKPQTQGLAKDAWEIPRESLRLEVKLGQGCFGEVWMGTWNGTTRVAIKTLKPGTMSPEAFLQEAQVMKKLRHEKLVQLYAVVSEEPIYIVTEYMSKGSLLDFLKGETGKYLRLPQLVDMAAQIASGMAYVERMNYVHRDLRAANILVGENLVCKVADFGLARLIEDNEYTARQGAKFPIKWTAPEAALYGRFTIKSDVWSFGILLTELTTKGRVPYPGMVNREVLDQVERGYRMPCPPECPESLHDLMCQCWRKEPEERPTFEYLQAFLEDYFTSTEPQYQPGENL

| IC50 [1] [nM] | IC50 [2] [nM] | SMILES | AUC = area under the curve from T = 0 to T = 24 hrs [3] |
| --- | --- | --- | --- |
| 1.8 | 4.7 | CN1C(=O)N(c2c(F)cccc2Br)Cc2cnc(Nc3ccc4c(c3)S(=O)(=O)CCO4)nc21 [Example 8, 3-(2-bromo-6-fluoro-phenyl)-7-(4,4-dioxo-3,4-dihydro-2H-4λ^6-benzo[1,4]oxathiin-6-ylamino)-1-methyl-3,4-dihydro-1H-pyrimido[4,5-d]pyrimidin-2-one] | – |
| 0.019 | 0.0246 | CC1c2cnc(Nc3ccc4c(c3)S(=O)(=O)CC(=O)N4C)nc2N(C)C(=O)N1c1ccccc1Br (single isomer, unassigned; enantiomer 1) [Example 13-52, 3-(2-Bromo-phenyl)-1,4-dimethyl-7-(4-methyl-1,1,3-trioxo-1,2,3,4-tetrahydro-1λ^6-benzo[1,4]thiazin-7-ylamino)-3,4-dihydro-1H-pyrimido[4,5-d]pyrimidin-2-one; enantiomer 1] | – |
| – | – | CC(=O)N1CCC2(CC1)Oc1ccc(Nc3ncc4c(n3)N(C)C(=O)N(c3ccccc3Br)C4)cc1O2 [Example 6, 3-(2-bromo-phenyl)-3,4-dihydro-7-(1′-acetyl-spiro[1,3-benzodioxolo-2,4′-piperidine]-5-yl)amino-1-methyl-pyrimido[4,5-d]pyrimidin-2(1H)-one] | 315 (h * ng/ml))/(mg/kg) |
| 4.3 | 12.9 | CN1C(=O)N(c2c(F)cccc2C#N)Cc2cnc(Nc3ccc4c(c3)S(=O)(=O)CCO4)nc21 [Example 13-53, 2-[7-(4,4-Dioxo-3,4-dihydro-2H-4λ^6-benzo[1,4]oxathiin-6-ylamino)-1-methyl-2-oxo-1,4-dihydro-2H-pyrimido[4,5-d]pyrimidin-3-yl]-3-fluoro-benzonitrile] | – |
| 2970 | 1340 | CC1c2cnc(Nc3ccc4c(c3)S(=O)(=O)CCO4)nc2N(C)C(=O)N1c1ccccc1Br (single isomer, unassigned; enantiomer 2) [Example 13-50, 3-(2-Bromo-phenyl)-7-(4,4-dioxo-3,4-dihydro-2H-4λ^6-benzo[1,4]oxathiin-6-ylamino)-1,4-dimethyl-3,4-dihydro-1H-pyrimido[4,5-d]pyrimidin-2-one; enantiomer 2] | – |
| 2.5 | 6.7 | O=C1CS(=O)(=O)c2cc(Nc3ncc4c(n3)NC(=O)N(c3c(F)cccc3Br)C4)ccc2N1 [Example 13-29] | – |
| 0.4 | 8.1 | CC1c2cnc(Nc3ccc4c(c3)S(=O)(=O)CCO4)nc2N(C)C(=O)N1c1ccccc1Br (single isomer, unassigned; enantiomer 1) [Example 8a, 3-(2-Bromo-phenyl)-7-(4,4-dioxo-3,4-dihydro-2H-4λ^6-benzo[1,4]oxathiin-6-ylamino)-1,4-dimethyl-3,4-dihydro-1H-pyrimido[4,5-d]pyrimidin-2-one; enantiomer 1] | – |
| 11 | 21 | CN1C(=O)c2ccc(Nc3ncc4c(n3)N(C)C(=O)N(c3c(F)cccc3Br)C4)cc2C1=O [Example 13-16, 5-[6-(2-bromo-6-fluoro-phenyl)-8-methyl-7-oxo-5,6,7,8-tetrahydro-pyrimido[4,5-d]pyrimidin-2-ylamino]-2-methyl-isoindole-1,3-dione] | – |
| – | – | CCN(CC)CCOc1ccc(Nc2ncc3c(n2)N(C)C(=O)N(c2ccccc2Br)C3)cc1 [Reference cpd 43 from WO 00/24744A, 3-(2-bromo-phenyl)-7-[4-(2-diethylamino-ethoxy)-phenylamino]-1-methyl-3,4-dihydro-1H-pyrimido[4,5-d]pyrimidin-2-one, reference compound] | 69.3 (h * ng/ml))/(mg/kg) |
| 17 | 29.4 | CN1C(=O)N(c2ccccc2Br)Cc2cnc(Nc3ccc4c(c3)S(=O)(=O)CO4)nc21 [Example 13-4, 3-(2-bromo-phenyl)-7-(3,3-dioxo-2,3-dihydro-3lambda*6*-benzo[1,3]oxathiol-5-ylamino)-1-methyl-3,4-dihydro-1H-pyrimido[4,5-d]pyrimidin-2-one] | – |
| 17 | 20 | CN1C(=O)N(c2ccccc2Br)Cc2cnc(Nc3ccc4c(c3)OCO4)nc21 [Example 13-8, 7-(benzo[1,3]dioxol-5-ylamino)-3-(2-bromo-phenyl)-1-methyl-3,4-dihydro-1H-pyrimido[4,5-d]pyrimidin-2-one] | – |
| 1.5 | 4.2 | CN1Cc2ccc(Nc3ncc4c(n3)N(C)C(=O)N(c3ccccc3Br)C4)cc2C1 [Example 13-3, 3-(2-bromo-phenyl)-1-methyl-7-(2-methyl-2,3-dihydro-1H-isoindol-5-ylamino)-3,4-dihydro-1H-pyrimido[4,5-d]pyrimidin-2-one; hydrochloride salt] | – |
| 2520 | 1280 | CC1c2cnc(Nc3ccc4c(c3)S(=O)(=O)CC(=O)N4C)nc2N(C)C(=O)N1c1ccccc1Br (single isomer, unassigned; enantiomer 2) [Example 13-51, 3-(2-Bromo-phenyl)-1,4-dimethyl-7-(4-methyl-1,1,3-trioxo-1,2,3,4-tetrahydro-1λ^6-benzo[1,4]thiazin-7-ylamino)-3,4-dihydro-1H-pyrimido[4,5-d]pyrimidin-2-one; enantiomer 2] | – |
| 7.2 | 5.4 | COc1cccc(F)c1N1Cc2cnc(Nc3ccc4c(c3)S(=O)(=O)CCO4)nc2N(C)C1=O [Example 13-49, 7-(4,4-Dioxo-3,4-dihydro-2H-4λ^6-benzo[1,4]oxathiin-6-ylamino)-3-(2-fluoro-6-methoxy-phenyl)-1-methyl-3,4-dihydro-1H-pyrimido[4,5-d]pyrimidin-2-one] | – |
| 0.8 | 4.3 | CN1CCS(=O)(=O)c2cc(Nc3ncc4c(n3)N(C)C(=O)N(c3c(F)cccc3Br)C4)ccc21 [Example 11, 3-(2-bromo-6-fluoro-phenyl)-1-methyl-7-(4-methyl-1,1-dioxo-1,2,3,4-tetrahydro-1lambda*6*-benzo[1,4]thiazin-7-ylamino)-3,4-dihydro-1H-pyrimido[4,5-d]pyrimidin-2-one] | – |
| 72.8 | 37.5 | COc1ccc(Br)c(N2Cc3cnc(Nc4ccc5c(c4)S(=O)(=O)CCO5)nc3N(C)C2=O)c1 [Example 13-48, 3-(2-Bromo-5-methoxy-phenyl)-7-(4,4-dioxo-3,4-dihydro-2H-4λ^6-benzo[1,4]oxathiin-6-ylamino)-1-methyl-3,4-dihydro-1H-pyrimido[4,5-d]pyrimidin-2-one] | – |
